# From patent publication US20100267803A1, “Regulators Of Fat Metabolism As Anti-Cancer Targets” (The Research Foundation of State University Of New York, priority 2008, published 2010)
# Columns and labels:
# Type in all cases: cell-based, human
# [1] = system: BT474 cells; experiment: Counts of GFP co-transfected BT474 cells (cell death / viability); details: shRNA co-transfected with GFP, counted up to 72 h
# Experimental: (§1) Results are shown as percentage of control. (**P=0.03). (c) BT474 cells were transfected with luciferase (control), PBP and NR1D1 shRNAs and co-transfected with GFP. Green cells were counted at intervals and expressed as percentage of control. (Error bars are s.d from 3 individual experiments; *P<0.08, **P<0.03, ***P<0.005). (d) BT474 cells were transfected with luciferase (control), PBP or NR shRNAs for 48 h. Immunofluorescence was performed for cleaved Caspase-3 signal; cell nuclei were stained with Hoechst 33243. (e) Cells from […] were counted for cleaved Caspase-3 signal. (Error bars are s.d from 3 individual experiments; ***P<0.0003). (f) BT474 cells were transfected with luciferase (control) PBP, NR1D1 or PBP and NR1D1 shRNAs together and co-transfected with GFP. Transfected cells were counted at 24 h and 72 h and the 72 h-to-24 h ratio for each shRNA was calculated and expressed as % of the control shRNA (luciferase). (Error bars are s.d from 3 individual experiments; **P=0.01, ***P<0.002). (g) Cells from (f) were counted for cleaved Caspase-3 signal. (Error bars are s.d from 3 individual experiments; ***P<0.0001). (h) ERBB2 mRNA levels of BT474 cells transfected with luciferase (control), PBP or NR1D1 shRNAs for 48 h, analyzed by qRT-PCRs. (Error bars are s.d from 3 individual experiments; ***P=0.0001).
# FIG. 4 NR1D1 and PBP coordinate fatty acid metabolism in breast cancer cells. (a) BT474, MDA-MB-361, MCF-7 and HMEC cells were stained with Oil-Red O lipid and hematoxylin nuclear stains. (b) Fat stores were quantified by BODIPY 493/503 lipid probe staining (Error bars are s.d from 3 individual experiments). (c) FASN, ACLY, ACACA and FADS2 mRNA levels of BT474 cells treated with luciferase (control), PBP or NR1D1 shRNAs, or with vehicle and 20 μM of GW9662 for 48 h, analyzed by qRT-PCRs. (Error bars are s.d from 3 experiments; ***P<0.001, **P=0.005) (d) BT474 cells were transfected with FASN, ACLY and ACACA shRNAs and co-transfected with GFP. Transfected cells were counted at 24 h and 72 h and the 72h-to-24 h ratio for each shRNA was calculated and expressed as % of the control shRNA (luciferase). (Error bars are s.d from 3 individual experiments; **P<0.01, ***P<0.002). (e) BODIPY images and (f) quantification of BT474 cells transfected with luciferase (control), PBP or NR1D1 shRNAs and co-transfected with DsRed (Error bars are s.d from 3 individual experiments; ***P<0.03). Arrows indicate transfected cells.
# FIG. 5. (a) MDH1 and ME1 mRNA levels of BT474 cells treated with luciferase (control), PBP or NR1D1 shRNAs for 48 h, analyzed by qRT-PCRs. (Error bars are s.d from 3 experiments; **P<0.002 (b) BT474 and MCF-7 cells were transfected with luciferase (control) MDH1 and ME1 shRNAs (Error bars are s.d from 3 individual experiments; ***P=0.0003). (c) BT474 cells) assayed for cleaved Caspase-3 signal by immunofluorescence 48 h after transfection; cell nuclei were stained with Hoechst 33243. (d) Quantification of cleaved Caspase-3 signal from cells in (c). (Error bars are s.d from 3 individual experiments; ***P<0.005). (e) Enzymes involved in fatty acid synthesis and storage that are regulated by NR1D1 and PBP and their proposed contribution to energy production necessary for survival of ERBB2-positive breast cancer cells.
# (§2) Cell viability—apoptosis assays. […] At least 30 fields were imaged per single experiment. […] Immunoblotting. […] PCR reaction was run using standard conditions.
# [2] = system: BT474 cells; experiment: Apoptosis by cleaved Caspase-3 or activated Bax immunofluorescence; details: 48 h of shRNA or 20 μM GW9662
# Experimental: as §1
# FIG. 3 PPAR. inhibition impacts NR1D1 expression and ERBB2-positive cells viability. (a) Cell counts of BT474, MDA-MB-361, MCF-7 and HMEC cells treated with vehicle, 10 and 20 μM of the PPAR. antagonist GW9662 for 72 hrs. Results represented as % of control (vehicle). (Error bars are s.d from 3 individual experiments; *P>0.2, **P<0.05, ***P<0.002). […] (c) Quantification of Caspase-3 signal. […] (d) aP2 and NR1D1 mRNA levels of BT474 cells treated with vehicle (control) and 20 μM of GW9662 for 48 h, analyzed by qRT-PCRs. […]
# FIG. 5. (a) MDH1 and ME1 mRNA levels of BT474 cells treated with luciferase (control), PBP or NR1D1 shRNAs for 48 h, analyzed by qRT-PCRs. […] (d) Quantification of cleaved Caspase-3 signal from cells in (c). […]
# [3] = system: BT474, MDA-MB-361, MCF-7 and HMEC cells; experiment: Cell counts after PPARγ antagonist treatment; details: 10 and 20 μM for 72 hrs; % of vehicle
# Experimental: FIG. 3 PPAR. inhibition impacts NR1D1 expression and ERBB2-positive cells viability. (a) Cell counts of BT474, MDA-MB-361, MCF-7 and HMEC cells treated with vehicle, 10 and 20 μM of the PPAR. antagonist GW9662 for 72 hrs. Results represented as % of control (vehicle). (Error bars are s.d from 3 individual experiments; *P>0.2, **P<0.05, ***P<0.002). (b) BT474 cells treated with vehicle or 20 μM of GW9662 for 48 h were immuno-stained for cleaved Caspase-3. (c) Quantification of Caspase-3 signal. (Error bars are s.d from 3 individual experiments; ***P=0.002). (d) aP2 and NR1D1 mRNA levels of BT474 cells treated with vehicle (control) and 20 μM of GW9662 for 48 h, analyzed by qRT-PCRs. (Error bars are s.d from 3 experiments; ***P<0.0006. (e) BMAL1-luc activity of BT474 cells treated with vehicle or 20 μM of GW9662 for 48 h. (Error bars are s.d from 3 individual experiments; **P=0.03). (f) Total ERBB2 western blot of BT474 cells treated with vehicle or 20 μM GW9662 for 72h. GAPDH was used as control.
# as §2
# [4] = system: BT474 cells; experiment: RNAi screen, alamarBlue cell proliferation and viability; details: shRNA transfection
# From the text: (§3) FIG. 1 An RNAi screen targeting genes overexpressed in breast cancer. (a) Three transfection mixes were produced for each shRNA and each was transfected into triplicate wells of BT474 cells. AlamarBlue was used to monitor cell proliferation and viability. […] (b) The genetic and functional linkage of NR1D1 and PBP. Mb refers to map position on chromosome 17. (c) ERBB2-overexpressing (OEX) and ERBB2 non-overexpressing (non-OEX) breast cancer cell lines as well as the (non-OEX) HMEC and HEK 293 cells were transfected and assayed as in (a). […] Genes clustered with ERBB2 are boxed.
# Amplification of the ERBB2 oncogene occurs in 10-34% of breast cancer cases and is correlated with aggressive disease and poor clinical outcome^1. […] However, its success has been tempered by response rates of only 30% when used as a single agent therapy in patients with metastatic ERBB2-positive breast cancer^2. A large number of genes co-overexpressed with ERBB2 in this tumour type have been proposed to contribute to the aggressiveness of this cancer^3-5. Applicants have performed an unbiased functional RNAi screen^8-10 to determine if any of these co-overexpressed genes are essential for ERBB2 positive breast cancer cell survival.
# RNAi screen, transfections and constructs. The flag-RevErba (flag-NR1D1) overexpression construct was a generous gift of M. Lazar. The LSXN-neu* (ERBB2) overexpression construct was a generous gift of L. Petti. shRNA constructs were expressed from the pSHAG-MAGIC 2 (pSM2) vector and derived from a genome-wide shRNA library^31. ShRNAs targeting the firefly (Photinus pyralis) luciferase gene were used as controls. Transfection efficiency was monitored by co-transfection with a modified MSCV-Puro vector expressing green fluorescent protein (GFP). The alamarBlue (Biosource) assay was performed 96 h post-transfection, since BT474 cells have a population doubling time of ˜100 hours. For mature sequences of the shRNAs that produced the best results on decreasing BT474 viability, Table S1; a complete list is available in the RNAi Codex web page (http://codex.cshl.edu). The shRNAs targeting the luciferase gene were constructed as described in the RNAi Codex web page (http://codex.cshl.edu/scripts/newmain.pl) using a modified pSM2 vector containing the PheS gene (pSM2-PheS) in the cloning site, as a negative selection marker. The empty vector control (pSM2e) was constructed by XhoI and EcoRI (New England Biolabs) digestion of pSM2-PheS, followed by nucleotide filling of protruding ends by Klenow polymerase and blunt-end ligation. Transfections were performed using FuGENE 6 and HD FuGENE (Roche) according to the manufacturer's protocol. High-throughput transfections were performed using an EpMotion 5070 fluidics station (Eppendorf). For quantification of alamarBlue we used a BioTek HT Synergy plate reader. AlamarBlue values from the RNAi screens on other cell types were also calculated as above and subjected to hierarchical cluster analysis using Cluster 2.11 (M. Eisen Lab).
# [5] = system: ERBB2 overexpressing (BT474, MDA-MB-361) breast cancer cell lines; experiment: alamarBlue proliferation of shRNA-transfected ERBB2-overexpressing cell lines; details: shRNA transfection
# From the text: as §3
# (§4) To assess the specificity of effect of each shRNA on cell proliferation, those causing the greatest decrease in BT474 cell proliferation were transfected in a variety of cell lines, including ERBB2 overexpressing (BT474, MDA-MB-361) and nonoverexpressing breast cancer cell lines (MCF-7, MDA-MB-453, MDA-MB-468), normal human mammary epithelial cells (HMECs) and a non-breast tumorigenic cell line (HEK 293FT). […] PBP, NRID1 and PFN2 shRNAs clustered with ERBB2.
# (§5) RNAi screen, transfections and constructs. The flag-RevErba (flag-NR1D1) overexpression construct was a generous gift of M. Lazar. The LSXN-neu* (ERBB2) overexpression construct was a generous gift of L. Petti. shRNA constructs were expressed from the pSHAG-MAGIC 2 (pSM2) vector and derived from a genome-wide shRNA library^31. ShRNAs targeting the firefly (Photinus pyralis) luciferase gene were used as controls. Transfection efficiency was monitored by co-transfection with a modified MSCV-Puro vector expressing green fluorescent protein (GFP). The alamarBlue (Biosource) assay was performed 96 h post-transfection, since BT474 cells have a population doubling time of ˜100 hours. […] For quantification of alamarBlue we used a BioTek HT Synergy plate reader. AlamarBlue values from the RNAi screens on other cell types were also calculated as above and subjected to hierarchical cluster analysis using Cluster 2.11 (M. Eisen Lab).
# [6] = system: nonoverexpressing breast cancer cell lines (MCF-7, MDA-MB-453, MDA-MB-468), HMECs, HEK 293FT; experiment: alamarBlue proliferation of shRNA-transfected ERBB2 non-overexpressing cell lines; details: MCF-7, MDA-MB-453, MDA-MB-468, HMEC, shRNA transfection
# From the text: as §3, §4, §5
Compound,cell death / viability (cell number of transfected cells) [1],effect on cell proliferation [4],further results
"ME1 shRNA: shRNA, mature sequence GGCTTTATCCTCCTTTGAA (shRNA)",cell death,–,apoptosis [2]: apoptosis
O=C(Nc1ccncc1)c1cc([N+](=O)[O-])ccc1Cl [second PPARγ antagonist],–,–,sensitivity of cells to drug treatment (cell counts) [3]: produced the same effects
"CA9 shRNA: shRNA, mature sequence CTTTGAATGGGCGAGTGAT (shRNA)",–,significant effects on proliferation,–
"PFN2 shRNA: shRNA, mature sequence AGCATTACGCCAATAGAAA (shRNA)",–,–,viability of ERBB2-positive cells [5]: specifically decreased the viability of ERBB2-positive cells; effect on other cell lines or HMECs [6]: without effect on other cell lines or HMECs
"ACACA shRNA: shRNA, mature sequence CACATGACCTTAAGATTAT (shRNA)",significantly decreased BT474 cell viability,–,–
"ACLY shRNA: shRNA, mature sequence GGGAGGAAGCTGATGAATA (shRNA)",significantly decreased BT474 cell viability,–,–
"TPD52 shRNA: shRNA, mature sequence CTGTGAGATTCCTACCTTT (shRNA)",–,significant effects on proliferation,–
"FADS2 shRNA: shRNA, mature sequence CCCATAGGGAGCTGATCGT (shRNA)",–,moderate effect on cell proliferation,–
"FASN shRNA: shRNA, mature sequence CTGGCCCAGGCTGAAGTTT (shRNA)",significantly decreased BT474 cell viability,moderate effect on cell proliferation,–
"MDH1 shRNA: shRNA, mature sequence CGAGCTAAAGCTCAAATTG (shRNA)",cell death,–,apoptosis [2]: apoptosis
"MKI67 shRNA: shRNA, mature sequence GCTACAAACTCCTAAGGAA (shRNA)",–,significant effects on proliferation,–
"MAP2K6 shRNA: shRNA, mature sequence CAGATGACCTGGAGCCTAT (shRNA)",–,most dramatic effect on cell proliferation,–
